Remaining activity data for one compound are collected here from PMC2806030, “Inhibition of mammalian S6 kinase by resveratrol suppresses autophagy” (Aging (Albany NY), 2009).

Holding throughout (assay): biochemical
Common to all, as to parameters: Upstate KinaseProfiler in vitro kinase activity assay, per cent of DMSO control
Common to all, as to settings: read-out: Activity (% of Control)

One assay deals with CSK(h) (Homo sapiens, UniProt P41240). An outline of the steps:
(§1)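 Profiling done with Upstate KinaseProfiler service across 100 kinases, resveratrol tested at 20 μM; activity expressed relative to control.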

For a further assay, the target named is T1, Rsk2(h) (Homo sapiens, UniProt P51812).
T1 construct: gene RPS6KA3
An outline of the steps: as §1

A further assay addresses CDK7/cyclinH/MAT1(h) (Homo sapiens, UniProt P50613). An outline of the steps: as §1
The next assay has as its target T2, IKKα(h) (Homo sapiens, UniProt O15111).
T2 construct: gene CHUK
Summed up:
as §1

Another assay has as its target T3, MSK1(h) (Homo sapiens, UniProt O75582).
T3 construct: gene RPS6KA5
Summed up: as §1

Another assay addresses PAK6(h) (Homo sapiens, UniProt Q9NQU5). An outline of the steps:
as §1

Another assay has as its target T4, PKBα(h) (Homo sapiens, UniProt P31749).
T4 construct: gene AKT1
An outline of the steps:
as §1

The target in another assay is T5, MST2(h) (Homo sapiens, UniProt Q13188).
T5 construct: gene STK3
An outline of the steps:
as §1

Another assay addresses T6, PI 3-Kinaseδ(h) (Homo sapiens, UniProt O00329).
T6 construct: gene PIK3CD
An outline of the steps:
as §1

T6 sequence (O00329 whole entry): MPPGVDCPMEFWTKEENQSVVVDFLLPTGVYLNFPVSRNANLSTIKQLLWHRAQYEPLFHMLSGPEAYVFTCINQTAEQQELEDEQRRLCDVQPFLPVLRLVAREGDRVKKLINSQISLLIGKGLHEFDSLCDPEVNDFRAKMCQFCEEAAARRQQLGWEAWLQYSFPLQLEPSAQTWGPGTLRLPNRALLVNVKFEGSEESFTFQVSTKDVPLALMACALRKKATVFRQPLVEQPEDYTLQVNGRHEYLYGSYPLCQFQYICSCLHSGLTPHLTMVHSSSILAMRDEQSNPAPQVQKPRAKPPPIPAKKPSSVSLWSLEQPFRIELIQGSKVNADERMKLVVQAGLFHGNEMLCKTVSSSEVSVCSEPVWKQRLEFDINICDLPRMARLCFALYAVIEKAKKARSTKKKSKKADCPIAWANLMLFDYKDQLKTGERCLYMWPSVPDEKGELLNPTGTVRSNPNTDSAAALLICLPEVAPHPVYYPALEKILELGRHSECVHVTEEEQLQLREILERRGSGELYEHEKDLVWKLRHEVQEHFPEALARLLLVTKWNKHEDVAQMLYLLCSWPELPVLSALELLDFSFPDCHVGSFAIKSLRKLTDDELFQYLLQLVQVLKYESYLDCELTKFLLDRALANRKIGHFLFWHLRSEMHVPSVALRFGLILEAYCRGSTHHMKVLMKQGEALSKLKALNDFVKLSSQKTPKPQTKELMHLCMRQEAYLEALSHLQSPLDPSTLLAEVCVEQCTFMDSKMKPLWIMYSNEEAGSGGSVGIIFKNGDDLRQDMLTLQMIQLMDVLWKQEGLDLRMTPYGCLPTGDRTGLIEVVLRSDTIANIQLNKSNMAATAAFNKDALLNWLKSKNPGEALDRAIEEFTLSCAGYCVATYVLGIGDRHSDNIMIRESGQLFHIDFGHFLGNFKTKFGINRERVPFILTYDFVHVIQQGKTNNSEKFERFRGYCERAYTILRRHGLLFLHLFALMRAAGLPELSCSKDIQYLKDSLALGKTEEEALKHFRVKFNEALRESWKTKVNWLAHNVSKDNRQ
T6 sequence (P27986 whole entry partner): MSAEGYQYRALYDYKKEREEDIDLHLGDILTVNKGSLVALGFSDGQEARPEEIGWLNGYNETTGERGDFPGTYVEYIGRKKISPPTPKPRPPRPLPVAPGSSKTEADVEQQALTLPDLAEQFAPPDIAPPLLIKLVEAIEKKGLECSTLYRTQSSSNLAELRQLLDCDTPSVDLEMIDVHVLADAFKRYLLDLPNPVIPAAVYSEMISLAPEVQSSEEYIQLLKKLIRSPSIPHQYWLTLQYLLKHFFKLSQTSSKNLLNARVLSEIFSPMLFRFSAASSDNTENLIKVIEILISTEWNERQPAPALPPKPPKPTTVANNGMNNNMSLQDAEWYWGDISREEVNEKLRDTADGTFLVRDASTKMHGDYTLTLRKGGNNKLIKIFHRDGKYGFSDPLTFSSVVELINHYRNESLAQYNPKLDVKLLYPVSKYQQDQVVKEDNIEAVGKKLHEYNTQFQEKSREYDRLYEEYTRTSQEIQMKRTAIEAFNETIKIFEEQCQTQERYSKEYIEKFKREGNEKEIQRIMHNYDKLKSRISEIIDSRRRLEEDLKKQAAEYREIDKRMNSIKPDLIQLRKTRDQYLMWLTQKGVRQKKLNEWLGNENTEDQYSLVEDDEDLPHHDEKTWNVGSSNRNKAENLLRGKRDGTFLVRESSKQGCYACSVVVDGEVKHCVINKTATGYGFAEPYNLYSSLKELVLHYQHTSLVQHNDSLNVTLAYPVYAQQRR
T4 sequence (P31749 whole entry): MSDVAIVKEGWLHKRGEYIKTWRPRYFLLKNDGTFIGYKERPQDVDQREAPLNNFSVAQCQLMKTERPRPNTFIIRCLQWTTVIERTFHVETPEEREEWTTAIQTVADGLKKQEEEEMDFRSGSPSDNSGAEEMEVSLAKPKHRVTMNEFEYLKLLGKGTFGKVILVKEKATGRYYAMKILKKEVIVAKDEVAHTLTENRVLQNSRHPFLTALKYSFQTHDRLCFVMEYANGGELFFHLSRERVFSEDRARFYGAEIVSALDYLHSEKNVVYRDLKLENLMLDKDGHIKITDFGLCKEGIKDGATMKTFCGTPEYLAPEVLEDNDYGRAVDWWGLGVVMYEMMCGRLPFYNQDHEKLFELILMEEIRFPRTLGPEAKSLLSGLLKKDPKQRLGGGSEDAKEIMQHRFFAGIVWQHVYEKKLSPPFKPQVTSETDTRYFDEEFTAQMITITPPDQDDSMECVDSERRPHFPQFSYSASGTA
Chain of PAK6(h) (Q9NQU5 whole entry): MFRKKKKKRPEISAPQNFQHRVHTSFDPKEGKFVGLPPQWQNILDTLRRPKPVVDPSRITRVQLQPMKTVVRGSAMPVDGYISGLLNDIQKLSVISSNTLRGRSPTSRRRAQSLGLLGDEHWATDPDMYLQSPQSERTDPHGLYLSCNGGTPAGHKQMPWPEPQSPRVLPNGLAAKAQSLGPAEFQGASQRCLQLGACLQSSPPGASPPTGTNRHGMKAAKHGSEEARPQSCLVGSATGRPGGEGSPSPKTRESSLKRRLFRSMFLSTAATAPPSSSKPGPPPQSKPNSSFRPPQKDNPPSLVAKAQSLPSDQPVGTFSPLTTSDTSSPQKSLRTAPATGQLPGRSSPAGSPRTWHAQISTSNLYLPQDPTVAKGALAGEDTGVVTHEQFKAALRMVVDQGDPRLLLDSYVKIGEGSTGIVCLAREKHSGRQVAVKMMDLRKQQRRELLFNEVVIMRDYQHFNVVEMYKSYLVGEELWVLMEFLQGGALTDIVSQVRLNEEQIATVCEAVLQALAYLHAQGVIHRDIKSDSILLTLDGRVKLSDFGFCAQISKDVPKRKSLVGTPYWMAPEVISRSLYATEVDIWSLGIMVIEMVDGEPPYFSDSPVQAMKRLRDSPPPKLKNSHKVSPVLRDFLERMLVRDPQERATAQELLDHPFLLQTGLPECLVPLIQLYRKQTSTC
T2 sequence (O15111 whole entry): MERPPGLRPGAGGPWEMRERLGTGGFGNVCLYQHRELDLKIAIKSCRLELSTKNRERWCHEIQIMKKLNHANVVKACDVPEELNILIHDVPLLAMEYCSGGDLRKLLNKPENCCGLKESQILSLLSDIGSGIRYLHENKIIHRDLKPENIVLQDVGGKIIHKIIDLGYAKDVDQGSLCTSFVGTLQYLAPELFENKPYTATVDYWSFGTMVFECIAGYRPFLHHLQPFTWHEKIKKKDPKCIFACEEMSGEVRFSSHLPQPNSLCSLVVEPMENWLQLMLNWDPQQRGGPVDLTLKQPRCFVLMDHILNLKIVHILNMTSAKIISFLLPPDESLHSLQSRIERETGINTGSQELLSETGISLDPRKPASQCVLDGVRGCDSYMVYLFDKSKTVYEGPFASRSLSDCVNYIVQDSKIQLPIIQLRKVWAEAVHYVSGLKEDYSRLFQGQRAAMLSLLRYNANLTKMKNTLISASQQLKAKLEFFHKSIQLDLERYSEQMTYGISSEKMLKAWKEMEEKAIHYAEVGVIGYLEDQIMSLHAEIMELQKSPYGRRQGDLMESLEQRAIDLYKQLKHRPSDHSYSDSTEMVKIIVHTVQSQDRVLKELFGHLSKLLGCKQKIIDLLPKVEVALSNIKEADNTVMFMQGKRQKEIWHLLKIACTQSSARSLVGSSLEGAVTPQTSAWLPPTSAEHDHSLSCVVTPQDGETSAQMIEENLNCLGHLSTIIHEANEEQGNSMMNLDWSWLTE
Chain of CDK7/cyclinH/MAT1(h) (P50613 whole entry): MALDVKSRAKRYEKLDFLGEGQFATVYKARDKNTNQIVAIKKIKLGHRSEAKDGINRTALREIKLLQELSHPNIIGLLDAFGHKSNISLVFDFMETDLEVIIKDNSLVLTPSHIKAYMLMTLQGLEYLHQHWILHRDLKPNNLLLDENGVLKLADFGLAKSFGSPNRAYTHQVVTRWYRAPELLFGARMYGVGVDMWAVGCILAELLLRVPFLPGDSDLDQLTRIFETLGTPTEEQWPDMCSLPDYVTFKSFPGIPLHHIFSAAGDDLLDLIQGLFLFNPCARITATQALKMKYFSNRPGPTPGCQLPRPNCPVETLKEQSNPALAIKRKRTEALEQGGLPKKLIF
Chain of CDK7/cyclinH/MAT1(h) (P51946 whole entry partner): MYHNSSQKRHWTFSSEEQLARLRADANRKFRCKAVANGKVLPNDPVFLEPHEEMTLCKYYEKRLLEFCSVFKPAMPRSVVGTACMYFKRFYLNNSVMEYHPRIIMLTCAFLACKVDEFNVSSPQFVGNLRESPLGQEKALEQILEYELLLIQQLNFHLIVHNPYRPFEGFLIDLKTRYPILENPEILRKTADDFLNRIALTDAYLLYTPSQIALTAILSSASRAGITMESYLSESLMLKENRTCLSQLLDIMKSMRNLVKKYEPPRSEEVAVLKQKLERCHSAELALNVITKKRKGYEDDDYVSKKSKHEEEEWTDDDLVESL
Chain of CDK7/cyclinH/MAT1(h) (P51948 whole entry partner): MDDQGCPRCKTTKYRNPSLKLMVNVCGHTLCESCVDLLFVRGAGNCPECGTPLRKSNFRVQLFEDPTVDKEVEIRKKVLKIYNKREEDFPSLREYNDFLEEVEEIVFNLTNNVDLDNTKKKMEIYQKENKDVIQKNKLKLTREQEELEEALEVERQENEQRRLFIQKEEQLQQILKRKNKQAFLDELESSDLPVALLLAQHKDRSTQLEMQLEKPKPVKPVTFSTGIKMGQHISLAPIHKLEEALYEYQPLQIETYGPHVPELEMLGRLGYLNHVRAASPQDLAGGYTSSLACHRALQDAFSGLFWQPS

As to `Oc1ccc(/C=C/c2cc(O)cc(O)c2)cc1` [Res, resveratrol], the remaining activity at 20 µM on CSK(h) stood at 94 ± 5%; at Rsk2(h), 32%; on CDK7/cyclinH/MAT1(h), 95 ± 1%; on IKKα(h), 40 ± 1%; on MSK1(h) it was 58 ± 1%; on PAK6(h) it was 103 ± 3%. For the same compound, the results for the remaining activity at 20 µM at PKBα(h), on MST2(h) and on PI 3-Kinaseδ(h) were 94 ± 2%, 73 ± 8% and 106 ± 1%, respectively.
